According to PubChem BioAssay (NCI):
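These data come from cells grown in 96-well plates and exposed to compound for 48 hours at five concentrations. GI50 is the concentration that inhibits growth by half. At the TGI there is no net growth.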

Experiments:
Experiment in all cases: NCI tumour cell line growth inhibition, 48 h
CAKI-1 renal = system: CAKI-1 renal
EKVX NSCLC = system: EKVX NSCLC
HCT-15 colon = system: HCT-15 colon
HS 578T breast = system: HS 578T breast
K-562 leukemia = system: K-562 leukemia
MCF7 breast = system: MCF7 breast
MDA-MB-435 = system: MDA-MB-435
OVCAR-4 ovarian = system: OVCAR-4 ovarian
OVCAR-5 ovarian = system: OVCAR-5 ovarian
SN12C renal = system: SN12C renal
SNB-75 CNS = system: SNB-75 CNS
UO-31 renal = system: UO-31 renal

SMILES	TGI (CAKI-1 renal) [µM]	TGI (EKVX NSCLC) [µM]	TGI (HCT-15 colon) [µM]	TGI (HS 578T breast) [µM]	TGI (K-562 leukemia) [µM]	TGI (MCF7 breast) [µM]	TGI (MDA-MB-435) [µM]	TGI (OVCAR-4 ovarian) [µM]	TGI (OVCAR-5 ovarian) [µM]	TGI (SN12C renal) [µM]	TGI (SNB-75 CNS) [µM]	TGI (UO-31 renal) [µM]	GI50 (CAKI-1 renal) [µM]	GI50 (EKVX NSCLC) [µM]	GI50 (HS 578T breast) [µM]	GI50 (MDA-MB-435) [µM]	GI50 (OVCAR-5 ovarian) [µM]	GI50 (SNB-75 CNS) [µM]	GI50 (UO-31 renal) [µM]
CCOP(=O)(Cc1nc(C#N)c(N)o1)OCC	> 100	> 100	> 100	> 100	> 100	> 100	> 100	> 100	> 100	> 100	–	–	–	–	–	–	–	–	–
CCN(CC)C(=O)c1cc([N+](=O)[O-])c(=O)n2c1[nH]c1ccccc12	> 100	> 100	–	> 100	> 100	–	> 100	> 100	> 100	> 100	> 100	> 100	–	–	–	–	–	–	–
OC(CCl)CN1CC[N+]2(CC1)CC[N+]1(CCN(CC(O)CCl)CC1)CC2 (centres undefined)	> 50	> 50	> 50	–	> 50	–	–	> 50	–	> 50	> 50	> 50	–	–	–	–	–	–	–
CC(C)N1[C@@H]2CCCC[C@H]2N(C(C)C)[P+]1=O	> 100	> 100	> 100	> 100	> 100	> 100	> 100	–	> 100	> 100	> 100	> 100	–	–	–	–	–	–	–
CC(C)(C)OC(=O)NNCC(O)COc1ccccc1 (centres undefined)	> 100	> 100	> 100	> 100	> 100	> 100	> 100	> 100	> 100	> 100	–	> 100	–	–	–	–	–	–	–
Cc1ccc2c(c1)Nc1ccccc1P2(=O)O	> 100	> 100	> 100	–	> 100	–	> 100	> 100	> 100	> 100	97.7	> 100	–	–	–	–	–	–	–
Cc1ccc(S(=O)(=O)N/N=C\c2c3ccccc3[n+](C)c3ccccc23)cc1	> 100	> 100	97.4	–	52.7	–	–	> 100	> 100	> 100	46	88.9	–	–	–	–	–	–	–
COc1ccc(C2=Nc3c(nc(SC)[nH]c3=O)NC(c3ccccc3)C2)cc1 (centres undefined)	31	67.8	–	–	66	41.8	> 100	–	> 100	47.2	48.8	56.3	–	–	–	–	–	–	–
COC(=O)C(CNC(=O)/C=C/c1ccc(OC(C)=O)c(OC(C)=O)c1)NC(=O)/C=C/c1ccc(OC(C)=O)c(OC(C)=O)c1 (centres undefined)	> 100	> 100	> 100	> 100	> 100	> 100	> 100	> 100	> 100	> 100	–	> 100	–	–	–	–	–	–	–
Cc1ccc(S(=O)(=O)NC(=O)NC(CC(=O)O)C(=O)O)cc1 (centres undefined)	–	–	> 100	> 100	> 100	> 100	–	> 100	> 100	> 100	> 100	> 100	–	–	–	–	–	–	–
CCN(CCC#N)C(=O)Nc1ccccc1	> 100	> 100	> 100	–	> 100	> 100	> 100	> 100	> 100	> 100	> 100	> 100	–	–	–	–	–	–	–
CC(=O)c1c(O)cc(O)c(-c2c(C)cc(O)c3c2C(=O)c2cccc(O)c2C3=O)c1O	–	31.9	28.6	34.6	62.6	29.8	34.5	28.5	41.5	36	38.1	27.9	–	–	–	–	–	–	–
Nc1ncc2c(n1)-c1ccccc1OC2	–	> 100	> 100	–	> 100	> 100	–	> 31.6	> 100	> 100	94.4	> 100	–	–	–	–	–	–	–
CC1=NN(c2nc(N)nc(-c3cc4ccccc4oc3=N)n2)C(C)(C)C1	31.1	32.8	35.9	48.1	53.1	> 100	41.8	31.2	60.1	43	–	37.4	–	–	–	–	–	–	–
N#Cc1c(N2CCCC2)nsc1Nc1ccccc1	–	> 100	> 100	> 100	> 100	–	–	> 100	> 100	> 100	> 100	> 100	–	–	–	–	–	–	–
COc1ccc(C2=NN(c3nsc4ccccc34)C(=O)CC2)cc1	–	> 100	> 100	–	> 100	–	–	> 100	> 100	> 100	> 100	> 100	–	–	–	–	–	–	–

SMILES	TGI (CAKI-1 renal) [µM]	TGI (EKVX NSCLC) [µM]	TGI (HCT-15 colon) [µM]	TGI (HS 578T breast) [µM]	TGI (K-562 leukemia) [µM]	TGI (MCF7 breast) [µM]	TGI (MDA-MB-435) [µM]	TGI (OVCAR-4 ovarian) [µM]	TGI (OVCAR-5 ovarian) [µM]	TGI (SN12C renal) [µM]	TGI (SNB-75 CNS) [µM]	TGI (UO-31 renal) [µM]	GI50 (CAKI-1 renal) [µM]	GI50 (EKVX NSCLC) [µM]	GI50 (HS 578T breast) [µM]	GI50 (MDA-MB-435) [µM]	GI50 (OVCAR-5 ovarian) [µM]	GI50 (SNB-75 CNS) [µM]	GI50 (UO-31 renal) [µM]
CSc1nc(-c2ccccc2)nc(=[N+]2CCOCC2)s1	–	> 100	> 100	–	> 100	–	–	> 100	> 100	> 100	> 100	> 100	–	–	–	–	–	–	–
Cn1c(-c2c(C3=CC(=O)N(c4ccccc4)C3=O)c3ccccc3n2C)cc2ccccc21	> 100	> 100	> 100	–	> 100	> 100	> 100	> 100	> 100	> 100	> 100	> 100	–	–	–	–	–	–	–
N=C(N)c1ccc(-c2ccc(-c3ccc(Cl)cc3Cl)s2)nc1	3.1	6.56	–	4.88	–	–	3.11	–	3.21	–	2.83	2.93	1.71	2.47	2.15	1.73	1.71	1.43	1.57
CC1=C(C(=O)NCc2ccccc2)C(c2ccco2)C(C(=O)NCc2ccccc2)=C(C)N1	> 100	> 100	> 100	–	> 100	–	–	> 100	> 100	> 100	> 100	> 100	–	–	–	–	–	–	–
O=[N+]([O-])c1ccc(Nc2cccc3c2[nH]c2c(-c4ccccc4)nccc23)c([N+](=O)[O-])c1	–	> 100	> 100	–	> 100	> 100	–	> 100	> 100	> 100	> 100	> 100	–	–	–	–	–	–	–
O=c1[nH]c2ccc(C(F)(F)F)cc2nc1C(F)(F)F	82.1	> 100	> 100	–	> 100	80.3	78.8	> 100	> 100	87.6	48	75.6	–	–	–	–	–	–	–
O=NNc1c[nH]c(=O)[nH]c1=O	> 100	> 100	> 100	–	> 100	> 100	> 100	> 100	–	> 100	> 100	> 100	–	–	–	–	–	–	–
CCCCOc1ccc(S(=O)(=O)/N=C(\NO)Nc2ccc(Cl)cc2)cc1	23.2	29.5	30.4	51.3	41.2	28.8	30.6	23.6	33.6	31	–	24.6	–	–	–	–	–	–	–
Cn1c2ccccc2c2c3c(c4c5ccccc5n(C)c4c21)C(=O)N(c1ccccc1)C3=O	> 100	> 100	> 100	–	> 100	> 100	> 100	> 100	> 100	> 100	> 100	> 100	–	–	–	–	–	–	–
COc1cc(-c2nc(SC)nc3c2CCc2ccccc2-3)cc(OC)c1OC	–	92.8	–	> 100	79.2	> 100	> 100	> 100	> 100	> 100	> 100	> 100	–	–	–	–	–	–	–
O=C(O)c1cccc(S(=O)(=O)NN2C(=O)CSC2c2c(O)ccc3ccccc23)c1 (centres undefined)	68	> 100	> 100	–	> 100	–	> 100	83	> 100	> 100	> 100	> 100	–	–	–	–	–	–	–
Cc1ccc2c(=O)cc(-c3cccc(F)c3)[nH]c2n1	> 100	> 100	–	0.0591	> 100	–	0.0224	> 100	> 100	> 100	–	–	–	–	–	–	–	–	–
O=S(=O)(O)c1cc(N=[N+]([O-])c2ccc(N=Nc3ccccc3)cc2S(=O)(=O)O)ccc1/C=C/c1ccc(N=[N+]([O-])c2ccc(N=Nc3ccccc3)cc2S(=O)(=O)O)cc1S(=O)(=O)O	–	> 100	> 100	–	> 100	> 100	–	> 100	> 100	> 100	> 100	> 100	–	–	–	–	–	–	–
O=c1onc(Nc2ccccc2)n1-c1ccccc1	> 100	> 100	> 100	> 100	> 100	> 100	–	> 100	> 100	> 100	> 100	> 100	–	–	–	–	–	–	–
Cc1cc(OCc2nnc3n2N=C(c2cc(F)c(Cl)cc2Cl)/C(=C/c2ccc(-c4ccc(Cl)cc4)o2)S3)ccc1Cl	> 50	> 50	> 50	> 50	> 50	> 50	> 50	–	> 50	> 50	–	> 50	–	–	–	–	–	–	–
CCCCCCCCCCOc1ccc(N=Nc2nnc(-c3ccc(OCCCCC)cc3)s2)cc1	> 100	> 100	> 100	> 100	> 100	> 100	> 100	> 100	> 100	> 100	–	–	–	–	–	–	–	–	–
